ChEMBL document CHEMBL1201862, “PubChem BioAssay data set” (2004)
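Each compound was tested at five concentrations against cells in 96-well plates for 48 hours. GI50: concentration for 50% inhibition of growth.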 Calls of active or inactive are those of the source. Cut-off read from the data, not from the text of the source: active = GI50 up to about 1.1 µM and inactive = higher.

Columns and labels:
Experiment in all cases: DTP human tumour cell line panel, 48 h
[1] = system: SF-268
[2] = system: HT-29
[3] = system: NCI/ADR-RES
[4] = system: NCI-H522
[5] = system: UACC-257
[6] = system: DU-145
[7] = system: BT-549
[8] = system: NCI-H226
[9] = system: MCF7
[10] = system: OVCAR-8
[11] = system: NCI-H23
[12] = system: M14
[13] = system: SK-OV-3
[14] = system: CAKI-1
[15] = system: COLO 205
[16] = system: A498
[17] = system: MOLT-4
[18] = system: OVCAR-5
[19] = system: T47D

Measured: GI50

COC(=O)CCCC(=O)/C(=N\Nc1ccc(Cl)cc1)Nc1c(Cl)cccc1Cl
inactive: [1] > 89.7 µM | [2] 56.6 µM | [3] > 74.1 µM | [4] 28.4 µM | [5] 59 µM | [6] 52.4 µM | [7] > 100 µM | [8] 45.2 µM | [9] 53.8 µM | [10] > 100 µM | [11] 48.2 µM | [12] > 92.5 µM | [13] > 100 µM | [14] > 100 µM | [15] 22.7 µM | [16] 29.5 µM | [17] 26 µM | [18] > 100 µM | [19] > 46.5 µM

CN(CCN(C)Cc1ccc(Cl)c(Cl)c1)CCN1CCCC1
inactive: [1] 10.4 µM | [2] 6.32 µM | [3] 67.3 µM | [4] 19.6 µM | [5] 9.16 µM | [6] 61.2 µM | [7] 65.6 µM | [8] 39.1 µM | [9] 28.4 µM | [10] 20.1 µM | [11] 42.1 µM | [12] 23.2 µM | [13] 71.9 µM | [14] 36 µM | [15] 19.2 µM | [16] 16.1 µM | [17] 9.33 µM | [18] 39.3 µM | [19] 57.9 µM

Cc1ccc(/N=N/c2c(C)nn(C(=O)CC(=O)Nc3ccccc3)c2C)cc1C
inactive: [1] > 100 µM | [2] > 100 µM | [3] > 100 µM | [4] > 100 µM | [5] > 10 µM | [6] > 100 µM | [7] > 100 µM | [8] > 100 µM | [9] > 100 µM | [10] > 100 µM | [11] > 100 µM | [12] > 100 µM | [13] > 100 µM | [14] > 100 µM | [15] > 100 µM | [16] > 100 µM | [17] > 100 µM | [18] > 100 µM | [19] > 100 µM

CCOC(=O)C1(Cc2ccc(C)cc2)Cc2ccc(C)cc2C1=O (stereo not drawn)
inactive: [1] 48.4 µM | [2] 5.43 µM | [3] 5.01 µM | [4] 6.34 µM | [5] 18.9 µM | [6] 41.4 µM | [7] 10 µM | [8] 35.2 µM | [9] 6.52 µM | [10] 27.2 µM | [11] 18.5 µM | [12] 9.59 µM | [13] 24.4 µM | [14] 19.5 µM | [15] 11.7 µM | [16] 23.5 µM | [17] 4.23 µM | [18] 52.5 µM | [19] 12.4 µM

Cc1cc(S(=O)(=O)Nc2nc(Nc3ccc4ccccc4c3)n[nH]2)c(S)cc1Cl
inactive: [1] 72.1 µM | [2] > 100 µM | [3] > 100 µM | [4] 30.3 µM | [5] 34.3 µM | [6] 54.3 µM | [7] 75.9 µM | [8] 34.1 µM | [9] 74.8 µM | [10] 64.3 µM | [11] 43 µM | [12] 46.8 µM | [13] 46.2 µM | [14] 52.8 µM | [15] 57.8 µM | [16] 26.4 µM | [17] > 100 µM | [18] 73.8 µM | [19] 63.7 µM

CCOC(=O)C1=C(C)C(C(=O)OC)/C(=C/c2cccc3cccnc23)C1=O (stereo not drawn)
inactive: [1] > 10 µM | [2] > 10 µM | [3] > 10 µM | [4] > 10 µM | [5] > 10 µM | [6] > 10 µM | [7] > 10 µM | [8] > 10 µM | [9] 4.76 µM | [10] > 10 µM | [11] > 10 µM | [12] > 10 µM | [13] > 10 µM | [14] > 10 µM | [15] > 10 µM | [16] > 10 µM | [17] > 10 µM | [18] > 10 µM | [19] > 10 µM

CN(C)CCCN1c2ccccc2CCc2ccc([N+](=O)[O-])cc21
inactive: [1] 29.6 µM | [2] 19.1 µM | [3] 19.1 µM | [4] 17.5 µM | [5] 16.3 µM | [6] 18.4 µM | [7] 27.9 µM | [8] 26.2 µM | [9] 17.7 µM | [10] 29.6 µM | [11] 27.2 µM | [12] 15.4 µM | [13] 37.2 µM | [14] 40.6 µM | [15] 13.6 µM | [16] 17.7 µM | [17] 33.3 µM | [18] 27.9 µM | [19] 16.5 µM
